{"source": "patent US11053234B2", "about": "(GlaxoSmithKline Intellectual Property Development Limited, priority 2016, dated 2021)", "data": [{"target": "T1, haematopoietic prostaglandin D synthase (H-PGDS) (Homo sapiens, UniProt O60760)", "T1 construct": "Full length human H-PGDS cDNA (Invitrogen Ultimate ORF 10H13026) was amplified by PCR; 6-His (N); TEV protease cleavage site (N); made in house; host or cells: E. coli BL21 (DE3*), vector pET22b+", "T1 sequence (O60760 whole entry)": "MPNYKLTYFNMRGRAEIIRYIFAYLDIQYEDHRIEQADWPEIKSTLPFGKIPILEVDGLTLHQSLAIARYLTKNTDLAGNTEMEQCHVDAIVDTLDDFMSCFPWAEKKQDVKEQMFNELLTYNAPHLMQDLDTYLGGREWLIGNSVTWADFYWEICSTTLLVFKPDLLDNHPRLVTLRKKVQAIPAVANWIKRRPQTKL", "assay": "H-PGDS RapidFire high throughput mass spectrometry assay (conversion of PGH2 to PGD2)", "format": "biochemical", "conditions": "10 nM H-PGDS, PGH2 formed in situ by COX-2 from arachidonic acid; read-out: Potency Range (mean pIC50) (converted)", "procedure": "H-PGDS RapidFire™ High Throughput Mass Spectrometry Assay\nThe H-PGDS RapidFire™ mass spectrometric assay monitors conversion of prostaglandin H2 (PGH2) to prostaglandin D2 (PGD2) by haematopoietic prostaglandin D synthase (H-PGDS). In the assay format described here, the substrate (PGH2) is formed in situ by the action of cyclooxygenase-2 on arachidonic acid. This first step is set up to be fast, and generates a burst of PGH2 at ˜10 μM. The PGH2 is then further converted to PGD2 by the H-PGDS enzyme. […] Plates are then read on the RapidFire™ high throughput solid phase extraction system (Agilent) which incorporates a solid phase extraction step coupled to a triple quadrupole mass spectrometer (AB SCIEX). Relative levels of PGD2 and PGF2α, which acts as a surrogate for substrate, are measured and a percent conversion calculated.\nExpression and Purification of H-PGDS Protein\nFull length human H-PGDS cDNA (Invitrogen Ultimate ORF 10H13026) was amplified by PCR with the addition of a 5′ 6-His tag and TEV protease cleavage site. The PCR product was digested with Ndel and Xhol and ligated into pET22b+ (Merck Novagen®). Expression was carried out in E. coli strain BL21 (DE3*) using auto-induction Overnight Express™ Instant TB medium (Merck Novagen®) supplemented with 1% glycerol. The culture was first grown at 37° C. and the temperature was reduced to 25° C. when OD600 reached 2.0. Cells were harvested by centrifugation after a further 18 hr. 10 g of E. coli cell pellet was suspended to a total volume of 80 mL in lysis buffer (20 mM Tris-Cl pH 7.5, 300 mM NaCl, 20 mM imidazole, 5 mM β-mercaptoethanol, 10% glycerol). 1 mg/mL protease inhibitors (Protease Inhibitor Cocktail Set III, Merck Calbiochem®) and 1 mg/mL lysozyme were added to the cell suspension. The suspension was then sonicated for 5 min (UltraSonic Processor VCX 750, Cole-Parmer Instrument Co.) with a micro probe (50% amplitude, 10 sec on/off) and then centrifuged at 100,000 g for 90 min (at 4° C.). The supernatant was loaded onto a Ni-NTA HiTrap column (5 mL, GE Healthcare, pre-equilibrated in lysis buffer). The column was washed with 10 column volumes of lysis buffer and eluted with lysis buffer containing 500 mM imidazole. The pooled protein peak fractions were concentrated using a 10 kDa centrifugal filter at 3500 g and 4° C. (Amicon Ultra-15 centrifugal filter unit with Ultracel-10 membrane from Millipore). Further purification of the concentrated protein was carried out using gel filtration chromatography on a HiLoad 26/600 Superdex 75 preparative grade column (GE Healthcare Life Sciences) using 50 mM Tris pH 7.5, 50 mM NaCl, 1 mM dithiothreitol, 1 mM MgCl2. Fractions containing the protein were pooled, concentrated as described above, and stored at −80° C.\nExpression and Purification of Cyclooxygenase-2 (COX-2) Protein\nThe full length human COX-2 gene (accession number L15326) was amplified by PCR to generate an EcoRI-HindIII fragment containing an in-frame FLAG tag. This was subcloned into pFastBac 1 (Invitrogen). The COX2 FLAG plasmid was recombined into the baculovirus genome according to the BAC-to-BAC protocol described by Invitrogen. Transfection into Spodoptera frugiperda (Sf9) insect cells was performed using Cellfectin (Invitrogen), according to the manufacturer's protocol. […] Cells were harvested using a continuous feed centrifuge run at 2500 g at a rate of approximately 2 L/min with cooling. The resultant cell slurry was re-centrifuged in pots (2500 g, 20 min, 4° C.) and the cell paste was stored at −80° C. […] The suspension was sonicated in 500 mL batches for 8×5 seconds at 10 u amplitude with the medium tip of an MSE probe sonicator and subsequently incubated at 4° C. for 90 min with gentle stirring. The lysate was centrifuged at 12000 rpm for 45 min at 4° C. in a Sorvall SLA1500 rotor. The supernatant (1400 mL) was added to 420 mL of 20 mM Tris-Cl pH 7.4, 150 mM NaCl, 0.1 mM EDTA to reduce the concentration of n-octyl-6-D-glucopyranoside to 1% w/v.", "units": {"IC50": "µM"}, "values": [{"smiles": "O=C(N[C@H]1CC[C@H](OCC(O)C2CC2)CC1)[C@H]1C[C@H](Oc2cc(F)ccc2OC(F)F)C1", "note": "(mixture of isomers) [Example 9, Racemic (trans)-N-((trans)-4-(2-Cyclopropyl-2-hydroxyethoxy)cyclohexyl)-3-(2-(difluoromethoxy)-5-fluorophenoxy)cyclobutanecarboxamide]", "IC50": "0.01 to 0.0794"}, {"smiles": "CC(O)(CO[C@H]1CC[C@H](NC(=O)[C@H]2C[C@H](Oc3cc(F)ccc3OC(F)F)C2)CC1)C1CC1", "note": "(mixture of isomers) [Example 11, Racemic (trans)-N-((trans)-4-(2-Cyclopropyl-2-hydroxypropoxy)cyclohexyl)-3-(2-(difluoromethoxy)-5-fluorophenoxy)cyclobutanecarboxamide]", "IC50": "0.01 to 0.0794"}, {"smiles": "CC(C(F)F)N1CCC(NC(=O)[C@H]2C[C@H](Oc3cc(F)ccc3OC(F)F)C2)CC1", "note": "(mixture of isomers) [Example 21, Racemic (trans)-3-(2-(Difluoromethoxy)-5-fluorophenoxy)-N-(1-(1,1-difluoropropan-2-yl)piperidin-4-yl)cyclobutanecarboxamide]", "IC50": "0.01 to 0.0794"}, {"smiles": "CC(N[C@H]1CC[C@H](NC(=O)[C@H]2C[C@H](Oc3cc(F)ccc3OC(F)F)C2)CC1)C(F)F", "note": "(mixture of isomers) [Example 23, Racemic (trans)-3-(2-(Difluoromethoxy)-5-fluorophenoxy)-N-((trans)-4-((1,1-difluoropropan-2-yl)amino)cyclohexyl)cyclobutanecarboxamide]", "IC50": "0.01 to 0.0794"}, {"smiles": "O=C1Nc2ccccc2C1NC(=O)[C@H]1C[C@H](Oc2cc(F)ccc2OC(F)F)C1", "note": "(mixture of isomers) [Example 24, Racemic (trans)-3-(2-(Difluoromethoxy)-5-fluorophenoxy)-N-(2-oxoindolin-3-yl)cyclobutanecarboxamide]", "IC50": "0.01 to 0.0794"}, {"smiles": "O=C1CC(NC(=O)[C@H]2C[C@H](Oc3cc(F)ccc3OC(F)F)C2)c2ccccc2N1", "note": "(mixture of isomers) [Example 25, Racemic (trans)-3-(2-(Difluoromethoxy)-5-fluorophenoxy)-N-(2-oxo-1,2,3,4-tetrahydroquinolin-4-yl)cyclobutanecarboxamide]", "IC50": "0.01 to 0.0794"}, {"smiles": "CC(O)[C@H]1CC[C@H](NC(=O)[C@H]2C[C@H](Oc3cc(F)ccc3OC(F)F)C2)CC1", "note": "(mixture of isomers) [Example 26]", "IC50": "0.01 to 0.0794"}, {"smiles": "O=C(N[C@H]1CC[C@H](C(O)C2CC2)CC1)[C@H]1C[C@H](Oc2cc(F)ccc2OC(F)F)C1", "note": "(mixture of isomers) [Example 27, Racemic (trans)-N-((trans)-4-(Cyclopropyl(hydroxy)methyl)cyclohexyl)-3-(2-(difluoromethoxy)-5-fluorophenoxy)cyclobutanecarboxamide]", "IC50": "0.01 to 0.0794"}, {"smiles": "CC(O)([C@H]1CC[C@H](NC(=O)[C@H]2C[C@H](Oc3cc(F)ccc3OC(F)F)C2)CC1)C(F)(F)F", "note": "(mixture of isomers) [Example 28, Racemic (trans)-3-(2-(Difluoromethoxy)-5-fluorophenoxy)-N-((trans)-4-(1,1,1-trifluoro-2-hydroxypropan-2-yl)cyclohexyl)cyclobutanecarboxamide]", "IC50": "0.01 to 0.0794"}, {"smiles": "CC(N[C@H]1CC[C@H](NC(=O)N2CC(Oc3cccc4scnc34)C2)CC1)C(F)F", "note": "(mixture of isomers) [Example 40, Racemic 3-(Benzo[d]thiazol-4-yloxy)-N-((trans)-4-((1,1-difluoropropan-2-yl)amino)cyclohexyl)azetidine-1-carboxamide]", "IC50": "0.01 to 0.0794"}, {"smiles": "CC(N[C@H]1CC[C@H](NC(=O)[C@H]2C[C@H](Oc3cccc4scnc34)C2)CC1)C(F)F", "note": "(mixture of isomers) [Example 46, Racemic (trans)-3-(Benzo[d]thiazol-4-yloxy)-N-((trans)-4-((1,1-difluoropropan-2-yl)amino)cyclohexyl)cyclobutanecarboxamide]", "IC50": "0.01 to 0.0794"}, {"smiles": "CC(C)(O)[C@@H]1CC[C@@H](NC(=O)[C@H]2C[C@H](Oc3cccc4scnc34)C2)CO1", "note": "(racemic) [Example 51, Racemic (trans)-3-(Benzo[d]thiazol-4-yloxy)-N-((trans)-6-(2-hydroxypropan-2-yl)tetrahydro-2H-pyran-3-yl)cyclobutanecarboxamide]", "IC50": "0.01 to 0.0794"}, {"smiles": "O=C(NC1CCN(c2ccccn2)C1)[C@H]1C[C@H](Oc2cccc3scnc23)C1", "note": "(mixture of isomers) [Example 82, Racemic (trans)-3-(Benzo[d]thiazol-4-yloxy)-N-(1-(pyridin-2-yl)pyrrolidin-3-yl)cyclobutanecarboxamide]", "IC50": "0.01 to 0.0794"}, {"smiles": "CC(C)(O)C1CC2(CC(NC(=O)[C@H]3C[C@H](Oc4cccc5scnc45)C3)C2)C1", "note": "(mixture of isomers) [Example 83, Racemic (trans)-3-(Benzo[d]thiazol-4-yloxy)-N-(6-(2-hydroxypropan-2-yl)spiro[3.3]heptan-2-yl)cyclobutanecarboxamide]", "IC50": "0.01 to 0.0794"}, {"smiles": "O=C1CC(NC(=O)[C@H]2C[C@H](Oc3cccc4scnc34)C2)c2ccccc2N1", "note": "(mixture of isomers) [Example 84, Racemic (trans)-3-(Benzo[d]thiazol-4-yloxy)-N-(2-oxo-1,2,3,4-tetrahydroquinolin-4-yl)cyclobutanecarboxamide]", "IC50": "0.01 to 0.0794"}, {"smiles": "CC(N1CCC(NC(=O)N2CC(Oc3cccc4scnc34)C2)CC1)C(F)(F)F", "note": "(racemic) [Example 86, Racemic 3-(Benzo[d]thiazol-4-yloxy)-N-(1-(1,1,1-trifluoropropan-2-yl)piperidin-4-yl)azetidine-1-carboxamide]", "IC50": "0.01 to 0.0794"}, {"smiles": "O=C(NC1CCN(c2ccccn2)C1)N1CC(Oc2cccc3scnc23)C1", "note": "(racemic) [Example 87, Racemic 3-(Benzo[d]thiazol-4-yloxy)-N-(1-(pyridin-2-yl)pyrrolidin-3-yl)azetidine-1-carboxamide]", "IC50": "0.1 to 1"}, {"smiles": "O=C(NC1CCCOC1)N1CC(Oc2cccc3scnc23)C1", "note": "(racemic) [Example 90, Racemic 3-(Benzo[d]thiazol-4-yloxy)-N-(tetrahydro-2H-pyran-3-yl)azetidine-1-carboxamide]", "IC50": "0.1 to 1"}, {"smiles": "CC(=O)N1CCCC(NC(=O)N2CC(Oc3cccc4scnc34)C2)C1", "note": "(racemic) [Example 92, Racemic N-(1-Acetylpiperidin-3-yl)-3-(benzo[d]thiazol-4-yloxy)azetidine-1-carboxamide]", "IC50": "0.1 to 1"}, {"smiles": "COC(=O)N1CCCC(NC(=O)N2CC(Oc3cccc4scnc34)C2)C1", "note": "(racemic) [Example 93, Racemic Methyl 3-(3-(benzo[d]thiazol-4-yloxy)azetidine-1-carboxamido)piperidine-1-carboxylate]", "IC50": "0.1 to 1"}, {"smiles": "COC(=O)N1CCOC(CNC(=O)N2CC(Oc3cccc4scnc34)C2)C1", "note": "(racemic) [Example 94, Racemic Methyl 2-((3-(benzo[d]thiazol-4-yloxy)azetidine-1-carboxamido)methyl)morpholine-4-carboxylate]", "IC50": "0.1 to 1"}, {"smiles": "CC(O)(CO[C@H]1CC[C@H](NC(=O)N2CC(Oc3cccc4scnc34)C2)CC1)C1CC1", "note": "(mixture of isomers) [Example 100, Racemic 3-(Benzo[d]thiazol-4-yloxy)-N-((trans)-4-(2-cyclopropyl-2-hydroxypropoxy)cyclohexyl)azetidine-1-carboxamide]", "IC50": "0.01 to 0.0794"}, {"smiles": "CC(C)(O)[C@@H]1CC[C@@H](NC(=O)N2CC(Oc3cccc4scnc34)C2)CO1", "note": "(racemic) [Example 104, Racemic 3-(Benzo[d]thiazol-4-yloxy)-N-((trans)-6-(2-hydroxypropan-2-yl)tetrahydro-2H-pyran-3-yl)azetidine-1-carboxamide]", "IC50": "0.01 to 0.0794"}]}]}
